Key:
[1] = Stability of the compound; assay type: physicochemical
Ehrlich's tumor cells = test: Carcinostatic activity in ddY mice subcutaneously inoculated with Ehrlich's tumor cells; assay type: in vivo; settings: for Weight of tumor tissues in the sample group (S) / Ratio of S/C: 14 days after inoculation; for Weight of tumor tissues in the sample group (S) / Toxicity, ratio of died mice / Ratio of S/C: 1 mg daily intraabdominal injection; for Weight of tumor tissues in the sample group (S) / Toxicity, ratio of died mice: dosage period 10 days (I, IV) or 7 days (XI, VI, X); for Evaluation: based on the ratios of S/C in percentages; for effectiveness in preventing the multiplication of cancer cells: conclusion in words from the table; for Toxicity, ratio of died mice: number of mice died in the group during 14 days after transplantation; for Ratio of S/C: tumor weight sample/control, control 4.44 ± 1.02 g (I, IV), 1.36 ± 0.15 g (XI, VI), 1.52 ± 0.27 g (X)
Method: In addition to the foregoing examples of preparation processes, Compounds I, IV, VI, X and XI were evaluated with respect to their carcinostatic activities and acute toxicities by animal tests as follows.
Each of mice (ddY) having a body weight of about 25 g was subcutaneously innoculated with 3×10^6 of Ehrlich's tumor cells, and the thus inoculated mice were divided into 5 "sample" groups and 3 "control" groups, each group consisting of five or four mice. The thus treated mice belonging to the control groups were observed over a period of 14 days. On the other hand, each mouse belonging to the sample groups was given a 1 mg dose of Compounds I, IV, VI, XI or X by injection into the abdominal coelom every day during the period beginning after 24 hours from the innoculation of the tumor cells, and as indicated in the table below.
At the end of the 14-day period following the above-mentioned innoculation of the tumor cells, the tumor tissues of each mouse were taken out and weighed, so that comparison could be made between the weights of the tumor tissues taken from the sample groups and the control groups. Further in the table, "Toxicity" is expressed by the number of mice died in the group during the 14-day period following the transplantation of the cancer cells and "Evaluation" is based on the ratios of S/C in percentages and expressed by "++" when the percentage is 0-25%, "+" when the percentage is 26-50%, and "±" when the percentage is 51-75%.

[2] = Acute toxicity, LD50 by oral administration; settings: in vivo, mouse

SMILES | stability [1] | Weight of tumor tissues in the sample group (S) (Ehrlich's tumor cells) [g] | Evaluation (Ehrlich's tumor cells) | effectiveness in preventing the multiplication of cancer cells (Ehrlich's tumor cells) | Toxicity, ratio of died mice (Ehrlich's tumor cells) | Ratio of S/C (Ehrlich's tumor cells) [%] | LD50 [2] [mg/kg]
N#Cc1ncnc2c1cnn2-c1ccccc1 [Compound I, 1-phenyl-1H-pyrazolo[3,4-d]pyrimidine-4-carbonitrile] | stable | 0.43 ± 0.40 | ++ (the percentage is 0-25%) | very effective in preventing the multiplication of cancer cells | 1/5 | 9.7 | 100
NC(=O)c1ncnc2c1cnn2-c1ccccc1 [Compound IV, 1-phenyl-1H-pyrazolo[3,4-d]pyrimidine-4-carboxamide] |  | 3.05 ± 1.40 | ± (the percentage is 51-75%) | effective in preventing the multiplication of cancer cells | 0/5 | 68.7 | 
NC(=NO)c1ncnc2c1cnn2-c1ccccc1 [Compound VI, 1-phenyl-1H-pyrazolo[3,4-d]pyrimidine-4-carboxamidoxime] |  | 0.43 ± 0.15 | + (the percentage is 26-50%) | effective in preventing the multiplication of cancer cells | 0/4 | 31.6 | 
O=C(O)c1ncnc2c1cnn2-c1ccccc1 [Compound X, 1-phenyl-1H-pyrazolo[3,4-d]pyrimidine-4-carboxylic acid] |  | 1.14 ± 0.27 | ± (the percentage is 51-75%) | effective in preventing the multiplication of cancer cells | 0/4 | 75.0 | 
NC(=S)c1ncnc2c1cnn2-c1ccccc1 [Compound XI, 1-phenyl-1H-pyrazolo[3,4-d]pyrimidine-4-thiocarboxamide] |  | 0.63 ± 0.08 | + (the percentage is 26-50%) | effective in preventing the multiplication of cancer cells | 0/4 | 46.3 | 
